The results in this text go back to patent US20060167270A1, “5-substituted 2h-pyrazone-3-carbixylic acid derivatives as antilipolytic agents for the treatment of metabolic-related disorders such as dyslipidemia” (Arena Pharmaceuticals Inc., priority 2002, published 2006).

This experiment has as its target T1, hRUP25 (Homo sapiens, UniProt Q8TDS4).
T1 construct: expressed in transfected cells; host or cells: CHO cells, stably transfected
Description: cAMP Whole Cell assay (Flash Plate Adenylyl Cyclase kit) in CHO cells stably transfected with hRUP25. The format is cell-based. Conditions: CHO cells stably expressing hRUP25; average of two (2) trials. An excerpt: A modified Flash Plate™ Adenylyl Cyclase kit (New England Nuclear, Cat. No. SMP004A) was utilized for direct identification of candidate compounds as agonists to hRUP25 (Seq. Id. Nos. 1 & 2) in accordance with the following protocol:
CHO cells stably transfected with an expression vector encoding hRUP25 and cultured under condition permissive for cell surface expression of the encoded hRUP25 receptor were harvested from flasks via non-enzymatic means. The cells were washed in PBS and resuspended in the manufacturer's Assay Buffer. Live cells were counted using a hemacytometer and Trypan blue exclusion, and the cell concentration was adjusted to 2×10^6 cells/ml. cAMP standards and Detection Buffer (comprising 2 μCi of tracer [^125I]-cAMP (100 μl) to 11 ml Detection Buffer) were prepared and maintained in accordance with the manufacturer's instructions. Candidate compounds identified as per above (if frozen, thawed at room temperature) were added to their respective wells (preferably wells of a 96-well plate) at increasing concentrations (3 μl/well; 12 μM final assay concentration). […] Plates were counted in a Wallac MicroBeta™ plate reader using “Prot. #31” (as per manufacturer instructions).
The biological in vitro activity was determined using the cAMP Whole Cell method, one representative example is shown in the table below: […]

Structures are written as SMILES. pIC50: −log10 of the molar value.

What is called pIC50 is −log10 of the IC50, conventionally taken in molar units.

T1 sequence (Q8TDS4 whole entry): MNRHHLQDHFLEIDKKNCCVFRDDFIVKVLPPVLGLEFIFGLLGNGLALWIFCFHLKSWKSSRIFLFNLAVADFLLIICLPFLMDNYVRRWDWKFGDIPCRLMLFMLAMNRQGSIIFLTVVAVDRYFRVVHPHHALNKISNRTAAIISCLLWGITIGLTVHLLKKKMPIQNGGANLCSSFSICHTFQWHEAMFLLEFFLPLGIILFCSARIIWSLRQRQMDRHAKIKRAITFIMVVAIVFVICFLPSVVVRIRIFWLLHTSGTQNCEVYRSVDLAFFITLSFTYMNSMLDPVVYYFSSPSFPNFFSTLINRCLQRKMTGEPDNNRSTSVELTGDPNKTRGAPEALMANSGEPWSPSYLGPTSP

`CCCCc1[nH]nc(C(=O)O)c1F` [Compound 8, 5-Butyl-4-fluoro-1H-pyrazole-3-carboxylic acid] gave a pIC50 of 6.05.
